pIC50: −log10 of the molar value. Read-outs that look alike come from different tables or passages of the source.
Tested on: P. falciparum 3D7 gametocytes
Assay: alamarBlue gametocyte viability assay, strain 3D7
Format: cell-based, Plasmodium falciparum
Conditions: Malaria Box; for Max Resp: DMSO set at 0%, 100 nM epoxomicin set at -100%; for Curve Class / IC50 / pIC50: stages III-V 3D7 gametocytes; for IC50 / pIC50: 11 concentrations, 1:3 dilution; for pIC50: read-out: IC50; call rule not given here

Structure (SMILES)	IC50	pIC50	Max Resp [%]	Curve Class
CCOC(=O)c1c[nH]c2c(CC)cccc2c1=O [MMV498479]	Inactive	–	28	4
CCCCNc1nc(NC(C)(C)C)nc(NC(C)(C)C)n1 [MMV665864]	–	4.88	-93	-2.1
Br.CCN(CC)S(=O)(=O)c1ccc(-c2csc(Nc3ccc(C)c(C)c3)n2)cc1 [MMV009108]	Inactive	–	-14	4
COc1ccc(C2c3ccc4ccccc4c3Oc3ncn(CCCN(C)C)c(=N)c32)cc1 (stereo not drawn) [MMV667491]	–	5.58	-95	-1.1
CCN(Cc1ccccc1)C1CCN(Cc2cc(Br)ccc2O)CC1.O=C(O)C(=O)O [MMV019127]	–	6.03	-56	-1.2
CCOc1ccc(Nc2c3ccccc3nc3ccccc23)cc1.Cl [MMV000304]	–	4.78	-95	-2.1
COc1cc2c(cc1OC)C1=NNC(=O)C1=NC(C)(C)C2 [MMV084940]	–	5.88	-133	-1.1
CC1CC2=C(CC1CNCCCN(C)C)C(C)(C)CCC2 (stereo not drawn) [MMV665830]	–	5.78	-88	-1.1
Cc1ccc(Nc2nc(-c3ccccn3)cs2)cc1 [MMV007907]	–	5.13	-73	-2.2
CN(C)c1ccc(N=Cc2ccc(N3CCOCC3)cc2)cc1 [MMV073843]	–	5.63	-98	-1.1
Cl.OC(CNCc1ccccc1)Cn1c2ccccc2c2ccccc21 (stereo not drawn) [MMV000839]	–	5.08	-97	-1.1
CC1CN(C(=O)c2sc3ccccc3c2Cl)CC(C)O1 (stereo not drawn) [MMV020492]	Inactive	–	-36	-2.2
N=c1c2ccccc2nnn1-c1cccc(C(F)(F)F)c1 [MMV665923]	Inactive	–	14	4
CC(=O)Nc1nnc(SCc2c(C)cc(C(C)(C)C)cc2C)s1 [MMV020700]	Inactive	–	-2	4
Cc1ccnc(NC(c2cccc(OCc3ccccc3)c2)c2ccc3cccnc3c2O)c1 (stereo not drawn) [MMV000720]	–	4.88	-112	-2.1
Cc1ccc(-c2nc3ccccc3o2)cc1NCc1cc(Cc2ccccc2)ccc1O [MMV020912]	–	4.63	-63	-2.2
OC(Cn1nnc2ccccc21)Cn1c2ccc(Br)cc2c2cc(Br)ccc21 (stereo not drawn) [MMV666025]	–	4.43	-60	-2.2
Cc1cccc(Nc2nc(N)c3ccccc3n2)c1.Cl [MMV019110]	–	4.73	-65	-2.2
CCCc1c(C)nc2ccccc2c1O [MMV666081]	Inactive	–	23	4
CN1c2ccccc2N(C)C1c1ccc2c(c1)OCO2 [MMV666009]	Inactive	–	-36	-2.4
CCCN(CCC)CC(O)COc1ccccc1C(=O)Nc1ccccc1 (stereo not drawn) [MMV006455]	–	6.13	-40	-1.2
Cc1ccc2c(C)nc(Nc3nc(C)cc(-c4ccccc4)n3)nc2c1 [MMV007041]	Inactive	–	-50	-2.2
CCN(CC)c1ccc(NC(=O)c2cccs2)cc1 [MMV009060]	Inactive	–	20	4
CCCC(c1nnnn1C1CCCCC1)N1CCN(C(=O)c2ccco2)CC1.Cl (stereo not drawn) [MMV666093]	Inactive	–	-10	4
COc1cccc(Nc2nc(N)c3ccccc3n2)c1.Cl [MMV019199]	–	4.63	-66	-2.2

Continued, in another order:

IC50	pIC50	Structure (SMILES)	Max Resp [%]	Curve Class
Inactive	–	O=C(NCc1ccco1)C1CCN(S(=O)(=O)c2ccc(Cl)cc2)CC1 [MMV006188]	19	4
Inactive	–	O=c1nc(C=Cc2ccc(Cl)cc2)oc2ccccc12 [MMV007977]	25	4
–	5.58	COc1cccc(NC(=O)[C@H](C(C)C)n2c(=O)[nH]c3ccccc3c2=O)c1 [MMV665878]	-82	-1.1
–	4.63	COc1ccc(-c2cn3c(C(=O)Nc4ccccc4Cl)c(-c4ccccc4)c4c3n2CCCC4)cc1 [MMV020403]	-73	-2.2
Inactive	–	COc1ccc(-c2nc(NC(=O)CS(=O)(=O)c3ccc(F)cc3)sc2C)cc1 [MMV665915]	-44	-2.2
–	5.23	CCC(C)NCC(O)(c1ccc(Cl)cc1)c1ccc(Cl)cc1 (stereo not drawn) [MMV665928]	-78	-2.2
Inactive	–	COCCN(C(=O)Cc1cccs1)C(C(=O)NCc1ccc(OC)cc1)c1ccc(C(C)C)cc1 (stereo not drawn) [MMV666105]	-42	-2.2
Inactive	–	COc1ccc(Br)cc1C1Nc2ccc3ccccc3c2C2=C1C(=O)CC(c1ccccc1)C2 (stereo not drawn) [MMV020885]	-29	4
Inactive	–	Cc1c(C)n(Cc2ccc(F)cc2)c2ccc(C(=O)NCc3ccco3)cc12 [MMV008149]	17	4
–	4.73	O=C(Nc1ccc(F)c(Cl)c1)Nc1ccc(Cl)c(Cl)c1 [MMV665953]	-94	-2.1
–	5.53	O=C(NC1CCN(Cc2ccccc2)CC1)c1cc(C(=O)NC2CCN(Cc3ccccc3)CC2)cc(C(=O)NC2CCN(Cc3ccccc3)CC2)c1 [MMV019881]	-90	-1.1
Inactive	–	CCC(=O)Nc1nnc(Cc2ccc(OC)c(OC)c2)s1 [MMV020942]	-19	4
–	5.08	Cc1cc(NCCN2CCCCC2)c2ccc3ccccc3c2n1 [MMV006203]	-94	-1.1
Inactive	–	Cc1sc(NC(=O)c2ccccc2)c(C(c2cccs2)N2CCN(c3ccccc3)CC2)c1C (stereo not drawn) [MMV396652]	-1	4
–	5.68	OC(CNC1CCCC1)Cn1c2ccccc2c2ccccc21 (stereo not drawn) [MMV000848]	-93	-1.1
–	4.83	COc1ccc(C(=O)NC(c2ccccc2Cl)c2cc(Cl)c3cccnc3c2O)cc1 (stereo not drawn) [MMV666022]	-83	-2.1
–	6.43	Cl.Cn1c(=O)n(C)c2cc(CNCCNc3ccnc4cc(Cl)ccc34)ccc21 [MMV665875]	-41	-1.2

IC50	pIC50	Structure (SMILES)	Max Resp [%]	Curve Class
Inactive	–	COc1cccc(NC(=O)Cn2c(C)c(C#N)c3ccccc32)c1 [MMV665826]	-52	-2.2
Inactive	–	Cc1cc(C=C2SC(=Nc3ccccc3)N(C3CCCC3)C2=O)c(C)n1-c1ccc(Cl)cc1 [MMV666688]	-20	4
–	5.28	O=C(NCCCN1CCC(N2CCCCC2)CC1)C1=Cc2cc(Br)ccc2OC1 [MMV019995]	-99	-1.1
–	4.63	COc1ccc(CCN2C(=O)c3[nH]nc(-c4cc(Cl)c(C)cc4O)c3C2c2ccccc2F)cc1 (stereo not drawn) [MMV396717]	-70	-2.2
–	4.53	COc1ccccc1N1CCN(C(CNS(=O)(=O)c2ccc(Cl)cc2)c2cccnc2)CC1 (stereo not drawn) [MMV665914]	-63	-2.2
–	4.53	CCOc1cc(Cl)c(C(C)NC(=O)c2cccc(OC)c2)cc1OCC (stereo not drawn) [MMV665803]	-58	-2.2
–	5.18	CN1CCN(c2nc(Nc3ccc(O)cc3)nc3ccccc23)CC1.Cl [MMV000986]	-93	-1.1
Inactive	–	Cc1ccc(-c2cc3c(SCC(=O)Nc4cc(C(F)(F)F)ccc4Cl)nccn3n2)cc1 [MMV396680]	-21	4
Inactive	–	COc1cc(C(=O)Nc2ccc(-c3nc4ccccc4[nH]3)cc2)cc(OC)c1OC [MMV665898]	-26	4
Inactive	–	O=C(c1ccccc1F)N(Cc1ccc(Cl)cc1)c1ccccn1 [MMV665899]	-26	4
Inactive	–	CCN(CC)CCCNc1ccnc2cc3ccccc3cc12 [MMV665783]	-50	-2.2
Inactive	–	COCCNC(=O)c1ccc(OC2CCN(Cc3ccc(F)c(F)c3)CC2)c(Cl)c1 [MMV666072]	12	4
Inactive	–	COc1ccc(-n2ccnc2SCC(=O)Nc2cc(C)ccc2C)c(OC)c1 [MMV019258]	-8	4
Inactive	–	COc1ccccc1CNC(=O)CCn1c(=O)[nH]c2ccccc2c1=O [MMV665916]	-1	4
Inactive	–	O=C(Nc1ccc(-c2nc3cc4ccccc4cc3[nH]2)cc1)c1cccc(Br)c1 [MMV019241]	-32	-2.4
Inactive	–	CCOc1ccccc1CNC(=O)C1c2ccccc2C(=O)N(CC(C)C)C1c1cccs1 (stereo not drawn) [MMV000653]	-49	-2.2
